Where two headings read alike, the source gives them in different places.
Tests used:
androgen receptor [1] = target: T1, androgen receptor (Homo sapiens, UniProt P10275); experiment: Androgen receptor binding test; parameters: expressed in transfected cells
T1 sequence (P10275 1-920): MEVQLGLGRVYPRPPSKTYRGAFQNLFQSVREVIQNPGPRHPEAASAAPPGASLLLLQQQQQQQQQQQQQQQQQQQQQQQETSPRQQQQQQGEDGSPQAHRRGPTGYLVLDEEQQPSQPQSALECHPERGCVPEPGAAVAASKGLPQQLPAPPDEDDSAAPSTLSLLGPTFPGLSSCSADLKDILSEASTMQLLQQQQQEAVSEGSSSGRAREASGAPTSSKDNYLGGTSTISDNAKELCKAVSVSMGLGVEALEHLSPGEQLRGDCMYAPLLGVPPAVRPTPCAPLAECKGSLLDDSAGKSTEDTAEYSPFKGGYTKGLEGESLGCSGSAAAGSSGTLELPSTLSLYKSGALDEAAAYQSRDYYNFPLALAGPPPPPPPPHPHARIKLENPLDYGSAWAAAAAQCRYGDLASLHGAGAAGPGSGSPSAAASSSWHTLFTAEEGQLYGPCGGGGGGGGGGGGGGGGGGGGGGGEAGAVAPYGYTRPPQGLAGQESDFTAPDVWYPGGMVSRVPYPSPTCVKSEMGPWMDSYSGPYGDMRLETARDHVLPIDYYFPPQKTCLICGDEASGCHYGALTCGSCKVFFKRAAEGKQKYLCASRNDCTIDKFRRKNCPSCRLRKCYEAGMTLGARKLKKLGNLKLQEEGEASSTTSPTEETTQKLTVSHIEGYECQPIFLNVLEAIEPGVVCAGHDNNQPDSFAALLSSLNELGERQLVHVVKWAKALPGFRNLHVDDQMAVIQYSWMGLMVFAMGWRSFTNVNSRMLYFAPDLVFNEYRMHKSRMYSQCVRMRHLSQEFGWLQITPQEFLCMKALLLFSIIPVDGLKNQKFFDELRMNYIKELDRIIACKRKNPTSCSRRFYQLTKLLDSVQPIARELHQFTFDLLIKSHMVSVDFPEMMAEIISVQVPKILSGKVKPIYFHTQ
Experimental: Using cytosol from progesterone receptor-expressing insect cells (Hi5), competitive binding to the progesterone receptor was determined from the ability to displace ^3H-progesterone as reference substance from the receptor.
3. Androgen Receptor Binding Test: […]

[2] = target: T2, fusion protein from the PR-ligand-binding domain and a Gal4-transactivation domain (Homo sapiens, UniProt P06401); experiment: Progestational action by transactivation test (CHO K1 reporter cells); format: cell-based; settings: for Emax: read-out: Progesterone receptor Agonism efficacy
T2 construct: expressed in transfected cells; host or cells: CHO K1 cells, stably transfected
Experimental: 4. Determination of Progestational Action by Means of Transactivation Tests:
The culture medium used for culture of the cells used for the assay was DMEM (Dulbecco's Modified Eagle Medium: […] glucose; PAA, #E15-009) with 10% FCS (Biochrom, S0115, batch #615B), 4 mM L-glutamine, 1% penicillin/streptomycin, 1 mg/ml G418 and 0.5 μg/ml puromycin.
Reporter cell lines (CHO K1 cells stably transfected with a fusion protein from the PR-ligand-binding domain and a Gal4-transactivation domain and a reporter construct, which contained luciferase under the control of a Gal4-responsive promoter) were seeded at a density of 4×10^4 cells per well in white, opaque tissue culture plates each with 96 wells (PerkinElmer, #P12-106-017) and kept in culture medium with 3% DCC-FCS (serum treated with activated charcoal to remove interfering components contained in the serum). The test compounds were added eight hours later, and the cells were incubated with the compounds for 16 hours. The tests were carried out in triplicate. At the end of incubation the medium containing the effector was removed and replaced with lysis buffer. After luciferase assay substrate (Promega, #E1501) had been added, the 96-well plates were then put in a microplate luminometer (Pherastar, BMG Labtech), and the luminescence was measured. The IC50 values were evaluated using software for calculating dose-effect relations.

androgen receptor [3] = target: T1, androgen receptor; experiment: Androgenic/antiandrogenic action by transactivation test (PC3 reporter cells); format: cell-based; parameters: expressed in transfected cells; host or cells: PC3 cells
Experimental: The test compounds were added eight hours later, and the cells were incubated with the compounds for 16 hours. The tests were carried out in triplicate. At the end of incubation the medium containing the effector was removed and replaced with lysis buffer. After luciferase assay substrate (Promega, #E1501) had been added, the 96-well plates were then put in a microplate luminometer (Pherastar, BMG Labtech), and the luminescence was measured. The IC50 values were evaluated using software for calculating dose-effect relations.
6. Determination of Androgenic/Antiandrogenic Action by Means of Transactivation Tests:
The androgenic/antiandrogenic action of the test substances was determined as for the transactivation tests described above.
The following modifications were made: In this case reporter cell lines were used (PC3 cells) that express the androgen receptor, and a reporter construct that contains luciferase under the control of a steroid hormone-responsive promoter.
For determination of the antiandrogenic efficacy, 0.05 nM R1881 was added to the cells, in order to achieve almost maximum stimulation of the reporter gene.

[4] = PC-3, read-out: Androgen receptor Agonism efficacy
[5] = PC-3, read-out: Androgen receptor Antagonism efficacy
[6] = reference substance 3H-testosterone, cytosol from AR-expressing insect cells (Hi5), read-out: Androgen receptor IC50
[7] = CHO K1 reporter cells, 16 hours incubation

T2 sequence (P06401 679-913 limits assumed): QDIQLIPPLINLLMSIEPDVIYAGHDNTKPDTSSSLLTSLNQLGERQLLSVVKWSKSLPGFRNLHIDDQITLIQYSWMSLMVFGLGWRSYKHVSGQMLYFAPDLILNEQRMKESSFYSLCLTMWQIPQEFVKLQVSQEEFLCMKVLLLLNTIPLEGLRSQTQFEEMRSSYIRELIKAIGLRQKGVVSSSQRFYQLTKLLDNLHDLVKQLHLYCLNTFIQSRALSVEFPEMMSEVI
T2 sequence (P04386 1-147 partner limits assumed): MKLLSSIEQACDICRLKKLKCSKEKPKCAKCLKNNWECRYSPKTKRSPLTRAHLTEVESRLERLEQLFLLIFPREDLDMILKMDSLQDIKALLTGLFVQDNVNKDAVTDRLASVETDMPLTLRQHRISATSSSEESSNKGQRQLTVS

CC[C@]12CC[C@H]3[C@@H]([C@H]4C[C@H]4C4=CC(=O)CC[C@@H]43)[C@@H]1[C@@H]1C[C@@H]1[C@@]21C=CC(=O)O1 [Example 1, 6β,7β;15β,16β-Bismethylene-17β-hydroxy-18-methyl-19-nor-17α-pregna-4,20(Z)-dien-3-one-21-carboxylic acid γ-lactone]
IC50 (androgen receptor [1]): 280 nM
EC50 [2]: 1.5 nM
Emax ([2]; CHO-K1, 16 h): 62.8%
EC50 (androgen receptor [3]): 100 nM
Emax (androgen receptor [3]; [4]): 46.3%
Emax (androgen receptor [3]; [5]): 5%

CC[C@]12CC[C@H]3[C@@H]([C@@H]4C[C@@H]4C4=CC(=O)CC[C@@H]43)[C@@H]1[C@@H]1C[C@@H]1[C@@]21C=CC(=O)O1 [Example 2, 6α,7α;15β,16β-Bismethylene-17β-hydroxy-18-methyl-19-nor-17α-pregna-4,20(Z)-dien-3-one-21-carboxylic acid γ-lactone]
IC50 (androgen receptor [1]): 450 nM
EC50 (androgen receptor [3]): 130 nM
Emax (androgen receptor [3]; [4]): 32.6%
Emax (androgen receptor [3]; [5]): 5%

CC[C@]12CC[C@H]3[C@@H](C=CC4=CC(=O)CC[C@@H]43)[C@@H]1[C@@H]1C[C@@H]1[C@@]21C=CC(=O)O1 [Example 3, 17β-Hydroxy-18-methyl-15β,16β-methylene-19-nor-17α-pregna-4,6,20(Z)-trien-3-one-21-carboxylic acid γ-lactone]
IC50 (androgen receptor [1]): 1300 nM
EC50 [2]: 1.4 nM
Emax ([2]; CHO-K1, 16 h): 34.2%
EC50 (androgen receptor [3]): 120 nM
Emax (androgen receptor [3]; [4]): 25.4%
Emax (androgen receptor [3]; [5]): 5%

CC[C@]12CC[C@H]3[C@H]([C@@H]1[C@@H]1C[C@@H]1[C@@]21C=CC(=O)O1)[C@H](C)CC1=CC(=O)CC[C@@H]13 [Example 4A, 7α,18-Bismethyl-17β-hydroxy-15β,16β-methylene-19-nor-17α-pregna-4,20(Z)-dien-3-one-21-carboxylic acid γ-lactone]
IC50 (androgen receptor [1]): 60 nM
EC50 [2]: 39 nM
Emax ([2]; CHO-K1, 16 h): 71.1%
EC50 (androgen receptor [3]): 3 nM
Emax (androgen receptor [3]; [4]): 97.5%
Emax (androgen receptor [3]; [5]): 5%

CC[C@@H]1CC2=CC(=O)CC[C@@H]2[C@H]2CC[C@@]3(CC)[C@@H]([C@@H]4C[C@@H]4[C@@]34C=CC(=O)O4)[C@H]12 [Example 5A, 17β-Hydroxy-7α-ethyl-18-methyl-15β,16β-methylene-19-nor-17α-pregna-4,20(Z)-dien-3-one-21-carboxylic acid γ-lactone]
IC50 (androgen receptor [1]): 110 nM
EC50 [2]: 99 nM
Emax ([2]; CHO-K1, 16 h): 35.7%
EC50 (androgen receptor [3]): 8.3 nM
Emax (androgen receptor [3]; [4]): 73%
Emax (androgen receptor [3]; [5]): 5%

C=C[C@@H]1CC2=CC(=O)CC[C@@H]2[C@H]2CC[C@@]3(CC)[C@@H]([C@@H]4C[C@@H]4[C@@]34C=CC(=O)O4)[C@@H]21 [Example 6A, 17β-Hydroxy-7α-vinyl-18-methyl-15β,16β-methylene-19-nor-17α-pregna-4,20(Z)-dien-3-one-21-carboxylic acid γ-lactone]
IC50 (androgen receptor [1]): 45 nM
EC50 [2]: 140 nM
Emax ([2]; CHO-K1, 16 h): 35.2%
EC50 (androgen receptor [3]): 0.98 nM
Emax (androgen receptor [3]; [4]): 118%
Emax (androgen receptor [3]; [5]): 5%

CC[C@]12CC[C@H]3[C@H]([C@@H]1[C@@H]1C[C@@H]1[C@@]21C=CC(=O)O1)[C@H](C1CC1)CC1=CC(=O)CC[C@@H]13 [Example 7A, 17β-Hydroxy-7α-cyclopropyl-18-methyl-15β,16β-methylene-19-nor-17α-pregna-4,20(Z)-dien-3-one-21-carboxylic acid γ-lactone]
IC50 (androgen receptor [1]): 170 nM
Emax ([2]; CHO-K1, 16 h): 5%
EC50 (androgen receptor [3]): 33 nM
Emax (androgen receptor [3]; [4]): 62.6%
Emax (androgen receptor [3]; [5]): 5%

CC[C@]12CC[C@H]3[C@@H]([C@H]4C[C@H]4C4=C(Cl)C(=O)CC[C@@H]43)[C@@H]1[C@@H]1C[C@@H]1[C@@]21C=CC(=O)O1 [Example 8, 6β,7β;15β,16β-Bismethylene-4-chloro-17β-hydroxy-18-methyl-19-nor-17α-pregna-4,20(Z)-dien-3-one-21-carboxylic acid γ-lactone]
IC50 (androgen receptor [1]; [6]): 4300 nM
Emax [2, 7]: 9.8%
EC50 (androgen receptor [3]): 250 nM
IC50 (androgen receptor [3]): 130 nM
Emax (androgen receptor [3]; [4]): 32.9%
Emax (androgen receptor [3]; [5]): 22.9%

CC[C@]12CC[C@H]3[C@@H](CCC4=CC(=O)CC[C@@H]43)[C@@H]1[C@@H]1C[C@@H]1[C@@]21C=CC(=O)O1 [Example 9, 17β-Hydroxy-18-methyl-15β,16β-methylene-19-nor-17α-pregna-4,20(Z) dien-3-one-21-carboxylic acid γ-lactone]
EC50 [2]: 1.6 nM
Emax ([2]; CHO-K1, 16 h): 56%
EC50 (androgen receptor [3]): 4.7 nM
Emax (androgen receptor [3]; [4]): 96.2%
Emax (androgen receptor [3]; [5]): 5%

CC[C@]12CC[C@H]3[C@@H](C[C@@H](CO)C4=CC(=O)CC[C@@H]43)[C@@H]1[C@@H]1C[C@@H]1[C@@]21C=CC(=O)O1 [Example 10, 17β-Hydroxy-6β-hydroxymethylene-18-methyl-15β,16β-methylene-19-nor-17α-pregna-4,20(Z)-dien-3-one-21-carboxylic acid γ-lactone]
IC50 (androgen receptor [1]; [6]): 1000 nM
Progesterone receptor Agonism EC50 [2, 7]: inactive
EC50 (androgen receptor [3]): 130 nM
IC50 (androgen receptor [3]): 160 nM
Emax (androgen receptor [3]; [4]): 17.9%
Emax (androgen receptor [3]; [5]): 15.6%

C[C@]12CC[C@H]3[C@@H](CCC4=CC(=O)CC[C@@H]43)[C@@H]1[C@H]1C[C@H]1[C@@]21C=CC(=O)O1 [Example 12, 17β-Hydroxy-15α,16α-methylene-19-nor-17α-pregna-4,20(Z)-dien-3-one-21-carboxylic acid γ-lactone]
IC50 (androgen receptor [1]): 200 nM
EC50 [2]: 0.4 nM
Emax ([2]; CHO-K1, 16 h): 75.5%
EC50 (androgen receptor [3]): 130 nM
IC50 (androgen receptor [3]): 86 nM
Emax (androgen receptor [3]; [4]): 14.9%
Emax (androgen receptor [3]; [5]): 61.7%

C[C@]12CC[C@H]3[C@@H](CCC4=CC(=O)CC[C@@H]43)[C@@H]1[C@@H]1C[C@@H]1[C@@]21C=CC(=O)O1 [Example 19, 17β-Hydroxy-15β,16β-methylene-19-nor-17α-pregna-4,20(Z)-dien-3-one-21-carboxylic acid γ-lactone]
IC50 (androgen receptor [1]): 52 nM
EC50 (androgen receptor [3]): 5.3 nM
Emax (androgen receptor [3]; [4]): 87.5%
Emax (androgen receptor [3]; [5]): 5%

C[C@]12CC[C@H]3[C@@H](CC4(CC4)C4=CC(=O)CC[C@@H]43)[C@@H]1[C@@H]1C[C@@H]1[C@@]21C=CC(=O)O1 [Example 22, 6,6-(1,2-Ethanediyl)-17β-hydroxy-15β,16β-methylene-19-nor-17α-pregna-4,20(Z)dien-3-one-21-carboxylic acid γ-lactone]
EC50 [2]: 1.1 nM
Emax ([2]; CHO-K1, 16 h): 126%
EC50 (androgen receptor [3]): 1.7 nM
Emax (androgen receptor [3]; [4]): 98.6%
Emax (androgen receptor [3]; [5]): 5%

From US20110015162A1, “15,16-Methylene-17-hydroxy-19-nor-21-carboxylic acid-steroid Y-lactone derivative, use thereof and medicinal products containing the derivative” (Bayer Schering Pharma Aktiengesellschaft, priority 2007, published 2011)
